Consider four compounds from PubChem BioAssay AID2060905 (Molecular Pharmacology Branch, DTP, NCI, 2025).

Where “and” joins values, the source holds several entries; their conditions need not be identical. Identical values can stand only once.

The subject of this assay is 282377-053-R-J1-PDC complex spheroid viability. Nature of the assay: Anticancer human tumor 282377-053-R-J1-PDC patient-derived colon adenocarcinoma cell line growth inhibition [RAS]. The conditions noted are these: for viability, T/C: stronger effect = lower value. The method, boiled down: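 Agents were tested in combination matrices in half-log decrements from a top concentration at or near clinical Cmax (10 microM if undetermined). Targets were multi-cell spheroids of tumour lines plus HUVEC and MSC stromal cells.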

Where [1] appears, read: curve of first compound, second compound 0.0316 µM.
[2] abbreviates: curve of first compound, second compound 0.1 µM.
Setting [3] is: curve of first compound, second compound 0.316 µM.
Setting [4] is: curve of first compound, second compound 1 µM.
Where [5] appears, read: curve of first compound, second compound 3.16 µM.
The mark [6] stands for this setting: curve of first compound, second compound 10 µM.
[7] abbreviates: second compound 0.0316 µM, first compound 0.0316 µM.
Where [8] appears, read: second compound 0.0316 µM, first compound 0.1 µM.
Setting [9] is: second compound 0.1 µM, first compound 0.0316 µM.
Where [10] appears, read: second compound 0.1 µM, first compound 0.1 µM.
The mark [11] stands for this setting: second compound 0.316 µM, first compound 0.0316 µM.
Where [12] appears, read: second compound 0.316 µM, first compound 0.1 µM.
[13] abbreviates: second compound 1 µM, first compound 0.0316 µM.
[14] abbreviates: second compound 1 µM, first compound 0.1 µM.
Where [15] appears, read: second compound 3.16 µM, first compound 0.0316 µM.
The mark [16] stands for this setting: second compound 3.16 µM, first compound 0.1 µM.
Setting [17] is: second compound 10 µM, first compound 0.0316 µM.
Where [18] appears, read: second compound 10 µM, first compound 0.1 µM.

The term IC50 denotes the point on the concentration scale where inhibition reaches its midpoint. For orientation: viability, T/C means the result in the treated group divided by that in the control group, in per cent.
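Further: spheroids exposed to agents for seven days before readout.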
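Wherever viability, T/C is given: luminescence viability as percent of DMSO vehicle control wells.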

As to `NC1c2ccccc2OC12CCN(c1cnc3c(N4CCCc5ncccc54)n[nH]c3n1)CC2` (stereo unspecified) + C#Cc1c(F)ccc2cc(O)cc(-c3ncc4c(N5CC6CCC(C5)N6)nc(OCC56CCCN5CC(F)C6)nc4c3F)c12, the IC50 by setting is: under setting [1], above 10000 nM; under setting [2], above 10000 nM; under setting [3], above 10000 nM; under setting [4], above 10000 nM; under setting [5], above 10000 nM; under setting [6], above 10000 nM. Also, the viability, T/C was 92.2% under setting [7]; 91.7% under setting [8]; 111% (second compound 0.0316 µM, first compound 0.316 µM); 104% (second compound 0.0316 µM, first compound 1 µM); 88.3% (second compound 0.0316 µM, first compound 3.16 µM); 67.5% (second compound 0.0316 µM, first compound 10 µM). Moreover, the viability, T/C is 90.7% under setting [9]; 85.5% under setting [10]; 99.2% (second compound 0.1 µM, first compound 0.316 µM); 71.9% (second compound 0.1 µM, first compound 1 µM); 110% (second compound 0.1 µM, first compound 3.16 µM); 73% (second compound 0.1 µM, first compound 10 µM). For the same compound, the viability, T/C by setting is: under setting [11], 105%; under setting [12], 87.4%; (second compound 0.316 µM, first compound 0.316 µM) 78.4%; (second compound 0.316 µM, first compound 1 µM) 95.6%; (second compound 0.316 µM, first compound 3.16 µM) 94.8%; (second compound 0.316 µM, first compound 10 µM) 78.7%. The viability, T/C is 83% under setting [13]; 88.1% under setting [14]; 106% (second compound 1 µM, first compound 0.316 µM); 92.5% (second compound 1 µM, first compound 1 µM); 85.1% (second compound 1 µM, first compound 3.16 µM); 83% (second compound 1 µM, first compound 10 µM). Moreover, the viability, T/C is, setting by setting: under setting [15], 90.4%; under setting [16], 96%; (second compound 3.16 µM, first compound 0.316 µM) 99.6%; (second compound 3.16 µM, first compound 1 µM) 86.5%; (second compound 3.16 µM, first compound 3.16 µM) 90.4%; (second compound 3.16 µM, first compound 10 µM) 77.1%. In addition, the viability, T/C under setting [17] is 115%; the viability, T/C under setting [18] was 105%; the viability, T/C (second compound 10 µM, first compound 0.316 µM) was 108%; the viability, T/C (second compound 10 µM, first compound 1 µM) is 84.7%; the viability, T/C (second compound 10 µM, first compound 3.16 µM) is 109%; the viability, T/C (second compound 10 µM, first compound 10 µM) was 81.6%.
Consider `CCC(CC)c1cc(NC2CCC(N)C2)n2nccc2n1` (stereo unspecified), for which the viability, T/C runs as follows: (compound 1 µM) 112% [middle of 4 runs]; (compound 3.16 µM) 10.4% [middle of 4 runs]; (compound 10 µM) 3% [middle of 4 runs]. Further, the concentration for half-maximal inhibition (IC50) (curve of compound) was 1.96 µM [middle of 4 runs].
With `Nc1ccn(C2OC(CO)C(O)C2(F)F)c(=O)n1` (stereo unspecified), the viability, T/C reads like this: (compound 0.00316 µM) 94.8% [middle of 4 runs]; (compound 0.01 µM) 101% [middle of 4 runs]. Further, for the setting “curve of compound”, the IC50 was > 1000 nM and 221 nM and 274 nM.
As for `CC(C)n1nc(-c2ccc3oc(N)nc3c2)c2c(N)ncnc21` + C#Cc1c(F)ccc2cc(O)cc(-c3ncc4c(N5CC6CCC(C5)N6)nc(OCC56CCCN5CC(F)C6)nc4c3F)c12, the IC50 is above 100 nM under setting [1]; above 100 nM under setting [2]; 88.1 nM under setting [3]; above 100 nM under setting [4]; 78.3 nM under setting [5]; above 100 nM under setting [6]. The viability, T/C is 101% (second compound 0.0316 µM, first compound 0.000316 µM); 87.2% (second compound 0.0316 µM, first compound 0.001 µM); 105% (second compound 0.0316 µM, first compound 0.00316 µM); 77.5% (second compound 0.0316 µM, first compound 0.01 µM); 72.7% under setting [7]; 56.9% under setting [8]. The viability, T/C runs as follows: (second compound 0.1 µM, first compound 0.000316 µM) 115%; (second compound 0.1 µM, first compound 0.001 µM) 107%; (second compound 0.1 µM, first compound 0.00316 µM) 89%; (second compound 0.1 µM, first compound 0.01 µM) 77.7%; under setting [9], 66.6%; under setting [10], 50.2%. Also, the viability, T/C was 99.8% (second compound 0.316 µM, first compound 0.000316 µM); 99.6% (second compound 0.316 µM, first compound 0.001 µM); 80.8% (second compound 0.316 µM, first compound 0.00316 µM); 71.1% (second compound 0.316 µM, first compound 0.01 µM); 69.4% under setting [11]; 45.3% under setting [12]. The viability, T/C is, setting by setting: (second compound 1 µM, first compound 0.000316 µM) 104%; (second compound 1 µM, first compound 0.001 µM) 81.2%; (second compound 1 µM, first compound 0.00316 µM) 82.9%; (second compound 1 µM, first compound 0.01 µM) 66.4%; under setting [13], 75.9%; under setting [14], 46.8%. The viability, T/C runs as follows: (second compound 3.16 µM, first compound 0.000316 µM) 87%; (second compound 3.16 µM, first compound 0.001 µM) 76%; (second compound 3.16 µM, first compound 0.00316 µM) 91.5%; (second compound 3.16 µM, first compound 0.01 µM) 81.1%; under setting [15], 76.3%; under setting [16], 42.8%. Further, the viability, T/C (second compound 10 µM, first compound 0.000316 µM) is 108%; the viability, T/C (second compound 10 µM, first compound 0.001 µM) is 91.5%; the viability, T/C (second compound 10 µM, first compound 0.00316 µM) is 84.6%; the viability, T/C (second compound 10 µM, first compound 0.01 µM) is 72%; the viability, T/C under setting [17] was 52.7%; the viability, T/C under setting [18] is 60.7%.
